In this test the target is T1, PD-1/PD-L1 interaction (PD-1-Ig / PD-L1-His) (Homo sapiens, UniProt Q9NZQ7).
T1 construct: hPDL1(18-239)-TVMV-His; TVMV protease site linker (C); made in house; host or cells: HEK293T
Nature of the test: PD-1/PD-L1 Homogenous Time-Resolved Fluorescence (HTRF) binding assay. The following applies: IC50 range class; PD-L1-His 10 nM, PD-1-Ig 20 nM; read-out: Range or IC50. The source says: The ability of the compounds of formula (I) to bind to PD-L1 was investigated using a PD-1/PD-L1 Homogenous Time-Resolved Fluorescence (HTRF) binding assay.
Homogenous Time-Resolved Fluorescence (HTRF) Binding Assay.
The interaction of PD-1 and PD-L1 can be assessed using soluble, purified preparations of the extracellular domains of the two proteins. The PD-1 and PD-L1 protein extracellular domains were expressed as fusion proteins with detection tags, for PD-1, the tag was the Fc portion of Immunoglobulin (PD-1-Ig) and for PD-L1 it was the 6 histidine motif (PD-L1-His). All binding studies were performed in an HTRF assay buffer consisting of dPBS supplemented with 0.1% […] bovine serum albumin and 0.05% (v/v) Tween-20. For the h/PD-L1-His binding assay, inhibitors were pre-incubated with PD-L1-His (10 nM final) for 15 m in 4 μl of assay buffer, followed by addition of PD-1-Ig (20 nM final) in 1 μl of assay buffer and further incubation for 15 m. HTRF detection was achieved using europium crypate-labeled anti-Ig (1 nM final) and allophycocyanin (APC) labeled anti-His (20 nM final). Antibodies were diluted in HTRF detection buffer and 5 μl was dispensed on top of the binding reaction. […] Additional binding assays were established between the human proteins PD-1-Ig/PD-L2-His (20 & 5 nM, respectively) and CD80-His/PD-L1-Ig (100 & 10 nM, respectively). […]
(Time-resolved FRET reads energy transfer from a long-lived donor to a nearby acceptor.)

T1 sequence (Q9NZQ7 with tags, fused parts or gaps): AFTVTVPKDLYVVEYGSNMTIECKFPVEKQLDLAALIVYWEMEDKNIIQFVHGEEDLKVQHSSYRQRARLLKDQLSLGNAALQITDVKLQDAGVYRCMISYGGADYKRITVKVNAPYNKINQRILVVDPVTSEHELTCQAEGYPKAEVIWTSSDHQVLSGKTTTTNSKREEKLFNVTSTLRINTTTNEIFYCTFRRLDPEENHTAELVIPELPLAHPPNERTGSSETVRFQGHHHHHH

With `Cc1c(OCCCN2CCCC(CO)C2)cccc1-c1cccc(OCCCN2CC[C@@H](O)C2)c1C` (mixture of isomers) [Example 2003, (3R)-1-(3-((3′-(3-(3-(hydroxymethyl)piperidin-1-yl)propoxy)-2,2′-dimethyl-[1,1′-biphenyl]-3-yl)oxy)propyl)pyrrolidin-3-ol], the IC50 – broadly, the concentration needed to halve the response being measured – is 20.1 to 90 nM.
For `Cc1c(OCCCN(C)CC(O)CO)cccc1-c1cccc(OCCCN2CC[C@@H](O)C2)c1C` (mixture of isomers) [Example 2015, 3-((3-((3′-(3-((R)-3-hydroxypyrrolidin-1-yl)propoxy)-2,2′-dimethyl-[1,1′-biphenyl]-3-yl)oxy)propyl)(methyl)amino)propane-1,2-diol] the value was 20.1 to 90 nM; for `CCN(CC)C(=O)C1CCCN(CCCOc2cccc(-c3cccc(OCCCN4CC[C@@H](O)C4)c3C)c2C)C1` (mixture of isomers) [Example 2023, N,N-diethyl-1-(3-((3′-(3-((R)-3-hydroxypyrrolidin-1-yl)propoxy)-2,2′-dimethyl-[1,1′-biphenyl]-3-yl)oxy)propyl)piperidine-3-carboxamide], 20.1 to 90 nM.
For `Cc1c(OCCCN2CC[C@@H](O)C2)cccc1-c1cccc(OCCCN2CCCCC2CO)c1C` (mixture of isomers) [Example 2025, (3R)-1-(3-((3′-(3-(2-(hydroxymethyl)piperidin-1-yl)propoxy)-2,2′-dimethyl-[1,1′-biphenyl]-3-yl)oxy)propyl)pyrrolidin-3-ol], the IC50 was 20.1 to 90 nM.
Next, `Cc1c(OCCCN2CCCC(CO)C2)cccc1-c1cccc(OCCCN2CCCC(CO)C2)c1C` (mixture of isomers) [Example 2026, ((((2,2′-dimethyl-[1,1′-biphenyl]-3,3′-diyl)bis(oxy))bis(propane-3,1-diyl))bis(piperidine-1,3-diyl))dimethanol]: 0.04 to 20 nM; `Cc1c(OCCCNCC(O)C(C)(C)O)cccc1-c1cccc(OCCCNCC(O)C(C)(C)O)c1C` (mixture of isomers) [Example 2029, 4,4′-((((2,2′-dimethyl-[1,1′-biphenyl]-3,3′-diyl)bis(oxy))bis(propane-3,1-diyl))bis(azanediyl))bis(2-methylbutane-2,3-diol)]: 0.04 to 20 nM.
For `Cc1c(OCCCNCC(O)c2cccnc2)cccc1-c1cccc(OCCCN2CC[C@@H](O)C2)c1C` (mixture of isomers) [Example 2040, (3R)-1-(3-((3′-(3-((2-hydroxy-2-(pyridin-3-yl)ethyl)amino)propoxy)-2,2′-dimethyl-[1,1′-biphenyl]-3-yl)oxy)propyl)pyrrolidin-3-ol] the value was 20.1 to 90 nM; for `Cc1c(OCCCNCC(O)CO)cccc1-c1cccc(OCCCN2CC[C@@H](O)C2)c1C` (mixture of isomers) [Example 2059, 3-((3-((3′-(3-((R)-3-hydroxypyrrolidin-1-yl)propoxy)-2,2′-dimethyl-[1,1′-biphenyl]-3-yl)oxy)propyl)amino)propane-1,2-diol], 0.04 to 20 nM.
In the case of `Cc1c(OCCCN(C)CC(O)CO)cccc1-c1cccc(OCCCN(C)CC(O)CO)c1C` (mixture of isomers) [Example 2078, 3,3′-((((2,2′-dimethyl-[1,1′-biphenyl]-3,3′-diyl)bis(oxy))bis(propane-3,1-diyl))bis(methylazanediyl))bis(propane-1,2-diol)], the IC50 is 0.04 to 20 nM.
Next, `Cc1c(OCCCNCC(O)CO)cccc1-c1cccc(OCCCNCC(O)CO)c1C` (mixture of isomers) [Example 2083, 3,3′-((((2,2′-dimethyl-[1,1′-biphenyl]-3,3′-diyl)bis(oxy))bis(propane-3,1-diyl))bis(azanediyl))bis(propane-1,2-diol)]: 0.04 to 20 nM; `Cc1c(OCCCNCC(C)(O)CO)cccc1-c1cccc(OCCCNCC(C)(O)CO)c1C` (mixture of isomers) [Example 2104, 3,3′-((((2,2′-dimethyl-[1,1′-biphenyl]-3,3′-diyl)bis(oxy))bis(propane-3,1-diyl))bis(azanediyl))bis(2-methylpropane-1,2-diol)]: 0.04 to 20 nM.

(Values after patent publication US10144706B2 (BRISTOL-MYERS SQUIBB COMPANY, priority 2016, dated 2018).)
